The source of these data is patent US5281603A, “Angiotensin II receptor blocking 2,3,6 substituted quinazolinones” (American Cyanamid Company, priority 1993, dated 1994).

For the test, the target named is T1, Angiotensin II Receptor (Bos taurus, UniProt P25104).
T1 construct: The brownish tissue forming the adrenal cortex is scraped off and finely minced with scissors before homogenization; from tissue; host or cells: beef adrenal cortex, microsomal membranes (100,000×g pellet)
T1 sequence (P25104 1-359): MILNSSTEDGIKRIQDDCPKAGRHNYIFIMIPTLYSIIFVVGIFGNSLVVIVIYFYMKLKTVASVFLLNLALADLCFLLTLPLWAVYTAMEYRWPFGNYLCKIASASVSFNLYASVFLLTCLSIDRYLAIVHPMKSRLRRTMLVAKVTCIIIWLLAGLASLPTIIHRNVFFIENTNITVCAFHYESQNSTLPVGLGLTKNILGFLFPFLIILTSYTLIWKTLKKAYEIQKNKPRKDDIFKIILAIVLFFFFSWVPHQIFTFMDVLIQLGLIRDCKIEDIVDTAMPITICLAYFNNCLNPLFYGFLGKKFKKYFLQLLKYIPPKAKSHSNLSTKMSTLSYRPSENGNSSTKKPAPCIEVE
Put plainly: Angiotensin II Receptor Binding: displacement of [^125 I](Sar^1,Ile^8)AngII from beef adrenal cortex membranes. Details: species or system beef (bovine). To be noted: radioligand; non-specific binding with 1.0 uM unlabeled (Sar^1,Ile^8)AngII. The text has this: Beef adrenals are obtained from a local slaughter house (Maxwell-Cohen). [^125 I](Sar^1,Ile^8)AngII, S.A. 2200 Ci/mmole, is purchased from Dupont (NEN®, Boston, Mass.). All unlabeled AngII analogs, Dimethylsulfoxide (DMSO), nucleotides, bovine serum albumin (BSA) are purchased from Sigma Chemical Co., St. Louis, Mo. U.S.A.
Approximately sixteen (16) to twenty (20) beef adrenal glands are processed as follows: fresh adrenal glands received on crushed ice are cleaned of fatty tissues and the tough membranes encapsulating the glands are removed and discarded. The brownish tissue forming the adrenal cortex is scraped off and finely minced with scissors before homogenization. Care is taken to avoid contamination with medullary tissue during dissection. The scraped cortices are suspended in twenty volumes of an ice-cold buffer medium consisting of 10 mM Tris.HCl (pH 7.4 at 22° C.) and containing 1.0 mM EDTA and 0.2M sucrose. Unless otherwise indicated, all subsequent operations are done at 4° C. […] The homogenate is centrifuged first at low speed (3,000×g) for 10 min. […] This P2 pellet is discarded and the liquid phase is carefully decanted off in clean centrifuge tubes and recentrifuged at high speed (100,000×g) for 60 min. The translucent final pellet is harvested and combined in a small volume (20-50.0 ml) of 50.0 mM Tris.HCl buffer, pH 7.2. […] The pelleted membrane is reconstituted in 50.0 mM Tris.HCl buffer containing 0.1 mM of phenylmethylsulfonyl fluoride (PMSF) to give approximately a protein concentration of 2.5 mg per ml of tissue suspension. The membrane preparation is finally aliquoted in 1.0 ml volumes and stored at -70° C. until use in the binding assays. […]
The wells are left undisturbed for 60 min. at room temperature. […] The filters are removed from the filter grid and counted in a Parkard® Cobra Gamma Counter for 1 min. […] The binding data are analyzed by the non-linear interactive "LUNDON-1" program (LUNDON SOFTWARE Inc., Cleveland, Ohio U.S.A.).

As for “[^125 I](Sar^1,Ile^8)AngII [reference compound]”, the Specific binding result was “greater than 90%”.
